Laboratory results: publication PMC7999658, “Characterization of P-Glycoprotein Inhibitors for Evaluating the Effect of P-Glycoprotein on the Intestinal Absorption of Drugs” (Pharmaceutics, 2021)
Like-named read-outs stand apart in the source and are kept apart here.

Assays:
BCRP = molecular target: T1, BCRP (Homo sapiens, UniProt Q9UNQ0); assay: Inhibition of BCRP-mediated transport of mitoxantrone across Caco-2 cell monolayers; conditions: Caco-2 monolayers
T1 sequence (Q9UNQ0 1-655): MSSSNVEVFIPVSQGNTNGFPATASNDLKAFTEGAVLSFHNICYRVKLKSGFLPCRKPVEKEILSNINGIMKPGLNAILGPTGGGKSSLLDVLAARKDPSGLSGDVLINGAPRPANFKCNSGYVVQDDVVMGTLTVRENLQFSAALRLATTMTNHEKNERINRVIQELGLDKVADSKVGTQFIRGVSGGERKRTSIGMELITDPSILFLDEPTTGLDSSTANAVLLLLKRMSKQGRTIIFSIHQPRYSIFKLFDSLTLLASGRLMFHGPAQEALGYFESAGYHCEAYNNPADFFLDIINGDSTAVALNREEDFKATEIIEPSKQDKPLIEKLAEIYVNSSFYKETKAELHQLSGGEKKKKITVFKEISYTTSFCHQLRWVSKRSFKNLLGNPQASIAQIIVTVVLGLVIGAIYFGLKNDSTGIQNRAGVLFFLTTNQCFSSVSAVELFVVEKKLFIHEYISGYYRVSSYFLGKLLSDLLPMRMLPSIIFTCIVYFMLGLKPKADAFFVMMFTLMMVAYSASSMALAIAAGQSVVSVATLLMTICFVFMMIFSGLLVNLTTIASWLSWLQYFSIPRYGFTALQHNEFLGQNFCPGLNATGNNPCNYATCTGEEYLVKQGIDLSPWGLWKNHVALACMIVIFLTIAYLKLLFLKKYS
Protocol: For transport experiments, Caco-2 cells were grown on a polyethylene terephthalate insert (0.4 μm pore size, 12 mm diameter) at 1.0 × 10^5 cells/well, and cultured for 14–21 days with the replacement of the medium once every 2 days. Caco-2 cells used in this study were within the passage range of 55 through 70.
(§1) The efflux ratio (ER) was calculated using Equation (3) ER = Papp,BA/Papp,AB(3) where Papp,AB and Papp,BA are the Papp values for AP-to-BL and BL-to-AP transport, respectively.
(§2) IC50 values of Papp,BA and ER were also determined using Equation (4).

P-gp [1] = molecular target: T2, P-gp (Homo sapiens, UniProt P08183); assay: Inhibition of P-gp-mediated transport of paclitaxel across Caco-2 cell monolayers; assay type: cell-based
T2 construct: host or cells: Caco-2
Protocol: Caco-2 cells from Dainippon Sumitomo Pharma (Osaka, Japan) were cultured in DMEM supplemented with 10% heat-inactivated fetal bovine serum, 1% antibiotic-antimycotic, 1% nonessential amino acids, and 2 mM L-glutamine [31]. Cells were maintained at 37 °C in 5% CO2/95% air and passaged upon reaching approximately 80% confluence using 0.25% trypsin/1 mM EDTA solution. For transport experiments, Caco-2 cells were grown on a polyethylene terephthalate insert (0.4 μm pore size, 12 mm diameter) at 1.0 × 10^5 cells/well, and cultured for 14–21 days with the replacement of the medium once every 2 days. Caco-2 cells used in this study were within the passage range of 55 through 70.
as §1, §2

P-gp [2] = tested on: P-gp; parameters: method as in PMID 18678495; conditions: cited from earlier work
in vivo [3] = conditions: FVB, mouse
[4] = for BA of paclitaxel: paclitaxel 20 mg/kg po vs 5 mg/kg IV
in vivo [5] = conditions: FVB, mouse, oral, 10 mg/kg
[6] = paclitaxel 10 mg/kg po
[7] = topotecan 2 mg/kg po; for concentration at 30 min: FVB, mouse, oral, 2 mg/kg
Protocol: Food and water were available ad libitum.
The flow rate was 1.0 mL/min.

Caco-2 cell monolayers = assay: Caco-2 monolayer transport study: paracellular marker permeability and mass balance (% recovery); assay type: in vitro ADME, human; conditions: Caco-2 monolayers, lucifer yellow 100 μM
[8] = IC50 on Papp,BA of mitoxantrone, mitoxantrone 5 μM, 50% decrease of Papp,BA
[9] = Caco-2 monolayers, 50% decrease of efflux ratio, read-out: IC50 on ER of paclitaxel
[10] = Caco-2 monolayers, paclitaxel 5 μM, 50% decrease of Papp,BA, read-out: IC50 on Papp,BA of paclitaxel
[11] = Caco-2 monolayers, paclitaxel 5 μM, inhibitor concentration to achieve 50% increase of Papp,AB, read-out: IC50 on Papp,AB of paclitaxel
[12] = portal vein plasma, po, 20 mg/kg
[13] = systemic (abdominal vein) plasma, po, 20 mg/kg
[14] = male, portal vein plasma, po, 20 mg/kg
[15] = male, systemic (abdominal vein) plasma, po, 20 mg/kg
[16] = paclitaxel 20 mg/kg po, WT mice
[17] = systemic (abdominal vein) plasma
[18] = male, systemic (abdominal vein) plasma

T2 sequence (P08183 whole entry): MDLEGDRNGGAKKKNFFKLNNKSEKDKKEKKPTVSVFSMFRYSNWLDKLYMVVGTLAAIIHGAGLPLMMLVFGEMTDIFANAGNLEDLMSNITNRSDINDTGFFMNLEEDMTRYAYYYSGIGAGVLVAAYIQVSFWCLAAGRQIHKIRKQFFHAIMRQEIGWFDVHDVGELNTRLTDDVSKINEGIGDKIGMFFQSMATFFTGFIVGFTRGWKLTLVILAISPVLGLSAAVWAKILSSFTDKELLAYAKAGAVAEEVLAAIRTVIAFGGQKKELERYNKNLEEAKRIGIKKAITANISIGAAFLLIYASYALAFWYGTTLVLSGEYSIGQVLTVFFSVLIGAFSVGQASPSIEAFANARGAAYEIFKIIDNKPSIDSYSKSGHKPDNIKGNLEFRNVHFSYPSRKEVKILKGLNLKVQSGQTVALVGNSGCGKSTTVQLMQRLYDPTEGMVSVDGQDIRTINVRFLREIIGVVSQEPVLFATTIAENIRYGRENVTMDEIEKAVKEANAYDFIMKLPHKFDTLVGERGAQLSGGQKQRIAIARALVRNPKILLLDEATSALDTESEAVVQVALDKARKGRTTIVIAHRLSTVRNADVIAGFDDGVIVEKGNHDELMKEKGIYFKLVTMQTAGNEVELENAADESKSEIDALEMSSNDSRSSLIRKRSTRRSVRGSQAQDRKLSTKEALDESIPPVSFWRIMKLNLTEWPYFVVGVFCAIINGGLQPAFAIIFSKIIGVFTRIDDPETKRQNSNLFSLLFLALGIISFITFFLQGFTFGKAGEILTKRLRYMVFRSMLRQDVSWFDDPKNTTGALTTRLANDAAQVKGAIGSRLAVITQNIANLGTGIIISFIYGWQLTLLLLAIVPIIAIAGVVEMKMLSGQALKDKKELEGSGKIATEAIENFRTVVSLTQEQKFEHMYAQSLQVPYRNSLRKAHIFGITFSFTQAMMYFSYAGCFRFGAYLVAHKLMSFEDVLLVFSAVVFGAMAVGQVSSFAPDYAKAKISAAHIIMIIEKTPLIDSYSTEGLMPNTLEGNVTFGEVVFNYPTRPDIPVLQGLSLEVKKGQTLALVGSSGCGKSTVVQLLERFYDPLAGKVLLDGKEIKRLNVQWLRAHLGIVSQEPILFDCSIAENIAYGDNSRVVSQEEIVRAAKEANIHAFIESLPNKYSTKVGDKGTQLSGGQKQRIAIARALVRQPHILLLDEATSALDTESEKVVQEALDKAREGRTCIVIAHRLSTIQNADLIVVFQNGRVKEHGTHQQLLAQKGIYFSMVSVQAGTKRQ

CCOC/C=C/c1ccc(-c2nc(-c3ccc(NC(C)C)cc3)c(-c3ccc(NC(C)C)cc3)[nH]2)cc1 [OC144-093, (E)-4,4’-(2-(4-[3-ethoxyprop-1-en-1-yl]phenyl)-1H-imidazole-4,5-diyl)bis(N-isopropylaniline)]
Hill coefficient, ER of mitoxantrone (BCRP): 3.61 ± 0.41
transport of paclitaxel in Caco-2 cells on addition of inhibitor (P-gp [1]; 0.01-10 μM inhibitor): not changed

COc1cc(C(=O)C(=O)N2CCCC[C@H]2C(=O)OC(CCCc2cccnc2)CCCc2cccnc2)cc(OC)c1OC [VX-710, (S)-N-(2-Oxo-2-(3,4,5-trimethoxyphenyl)-acetyl)piperidine-2-carboxylic acid 1,7-bis(3-pyridyl)-4-heptyl ester]
Hill coefficient, ER of mitoxantrone (BCRP): 0.46 ± 0.12
IC50 (BCRP; IC50 on ER of mitoxantrone, 50% decrease of efflux ratio): 1640 ± 520 nM
IC50 (BCRP; [8]): 2680 ± 31 nM
Hill coefficient, ER of paclitaxel (P-gp [1]; Caco-2 monolayers): 1.68 ± 0.38
IC50 (P-gp [1]; [9]): 871 ± 277 nM
IC50 (P-gp [1]; [10]): 4500 ± 84 nM
IC50 (P-gp [1]; [11]): 2680 ± 53 nM

COc1cc2c(cc1OC)CN(CCc1ccc(NC(=O)c3cc(OC)c(OC)cc3NC(=O)c3cnc4ccccc4c3)cc1)CC2 [XR9576, N-(2-([(4-(2-[3,4-Dihydro-6,7-dimethoxy-2(1H)-isoquinolinyl]ethyl)phenyl)amino]carbonyl)-4,5-dimethoxyphenyl)-3-quinolinecarboxamide]
Hill coefficient, ER of mitoxantrone (BCRP): 0.44 ± 0.05
IC50 (BCRP; [8]): 1000 ± 45 nM
IC50 (BCRP; read-out: IC50 on ER of mitoxantrone, 50% decrease of efflux ratio): 531 ± 162 nM
Hill coefficient, ER of paclitaxel (P-gp [1]; Caco-2 monolayers): 3.41 ± 0.28
basal-to-apical transport of paclitaxel (P-gp [1]; Caco-2 monolayers): significantly decreased
IC50 (P-gp [1]; [9]): 46 ± 19 nM
IC50 (P-gp [1]; [10]): 64 ± 40 nM
IC50 (P-gp [1]; [11]): 234 ± 61 nM
IC50 for P-gp-mediated Hoechst 33342 transport lower than that for BCRP-mediated Hoechst 33342 transport (P-gp [2]): approximately 20.1 fold

CC(=O)O[C@H]1C(=O)[C@@]2(C)[C@H]([C@H](OC(=O)c3ccccc3)[C@]3(O)C[C@H](OC(=O)[C@H](O)[C@@H](NC(=O)c4ccccc4)c4ccccc4)C(C)=C1C3(C)C)[C@]1(OC(C)=O)CO[C@@H]1C[C@@H]2O [paclitaxel]
AUC (in vivo [3]; plasma, iv, 5 mg/kg): 2.66 µM·h
MRT (in vivo [3]; plasma, iv, 5 mg/kg): 1.47 h
Vd (in vivo [3]; plasma, iv, 5 mg/kg): 4.15 L/kg
clearance (in vivo [3]; plasma, iv, 5 mg/kg): 36.7 mL/min/kg
half-life (in vivo [3]; plasma, iv, 5 mg/kg): 2.12 h
AUC (in vivo [3]; [12]): 6.58 µM·h
MRT (in vivo [3]; [12]): 2.16 h
Tmax (in vivo [3]; [12]): 1 h
k el (in vivo [3]; [12]): 0.000153 s⁻¹
AUC (in vivo [3]; [13]): 3.09 µM·h
Cmax (in vivo [3]; [13]): 1180 nM
MRT (in vivo [3]; [13]): 3.09 h
Tmax (in vivo [3]; [13]): 1 h
k el (in vivo [3]; [13]): 9.72e-05 s⁻¹
half-life (in vivo [3]; systemic plasma, po, 20 mg/kg): 2 h
AUC (in vivo [3]; male, plasma, iv, 5 mg/kg): 2.32 µM·h
MRT (in vivo [3]; male, plasma, iv, 5 mg/kg): 1.71 h
Vd (in vivo [3]; male, plasma, iv, 5 mg/kg): 4.32 L/kg
clearance (in vivo [3]; male, plasma, iv, 5 mg/kg): 42 mL/min/kg
AUC (in vivo [3]; [14]): 2 µM·h
Cmax (in vivo [3]; [14]): 730 nM
MRT (in vivo [3]; [14]): 2.51 h
Tmax (in vivo [3]; [14]): 1 h
half-life (in vivo [3]; [14]): 1.62 h
k el (in vivo [3]; [14]): 0.000119 s⁻¹
AUC (in vivo [3]; [15]): 1.09 µM·h
Cmax (in vivo [3]; [15]): 442 nM
MRT (in vivo [3]; [15]): 2.29 h
Tmax (in vivo [3]; [15]): 1 h
k el (in vivo [3]; [15]): 0.000139 s⁻¹
half-life (in vivo [3]; male, systemic plasma, po, 20 mg/kg): 1.37 h
t1/2 of paclitaxel ([4]; paclitaxel 5 mg/kg IV, WT mice): 2.38 h
AUCpv of paclitaxel, mdr1a/1b KO mice versus WT mice ([4]; paclitaxel 20 mg/kg po): 3.3 fold
AUCsys of paclitaxel, mdr1a/1b KO mice higher than WT mice ([4]; paclitaxel 20 mg/kg po): approximately 2.8 fold
BA of paclitaxel, mdr1a/1b KO mice versus WT mice ([4]; paclitaxel 20 mg/kg po): 2.5 fold
Cmax of paclitaxel in portal vein, mdr1a/1b KO mice versus WT mice ([4]; paclitaxel 20 mg/kg po): 3.5 fold
Cmax of paclitaxel in systemic circulation, mdr1a/1b KO mice versus WT mice ([4]; paclitaxel 20 mg/kg po): 2.7 fold
FaFg of paclitaxel, mdr1a/1b KO mice versus WT mice ([4]; paclitaxel 20 mg/kg po): 4.0 fold
BA of paclitaxel ([4]; WT mice): 11.7%
BA of paclitaxel ([4]; mdr1a/1b KO mice): 29.0%
FaFg of paclitaxel [4, 16]: 16.6%
Fh of paclitaxel [4, 16]: 70.6
FaFg of paclitaxel ([4]; paclitaxel 20 mg/kg po, mdr1a/1b KO mice): 66.3%
t1/2 of paclitaxel ([4]; paclitaxel 20 mg/kg po, mdr1a/1b KO mice, pv): 1.25 h
Cmax ([4]; read-out: Cmax of paclitaxel, paclitaxel 20 mg/kg po, mdr1a/1b KO mice, pv): 2520 nM
concentration at 10 min (in vivo [5]; portal vein plasma): 967 nM
concentration at 30 min (in vivo [5]; portal vein plasma): 1090 ± 118 nM
concentration at 10 min (in vivo [5]; [17]): 218 ± 100 nM
concentration at 30 min (in vivo [5]; [17]): 245 ± 69 nM
concentration at 10 min (in vivo [5]; male, portal vein plasma): 439 nM
concentration at 30 min (in vivo [5]; male, portal vein plasma): 328 ± 41 nM
concentration at 10 min (in vivo [5]; [18]): 223 ± 76 nM
concentration at 30 min (in vivo [5]; [18]): 135 ± 41 nM
V of paclitaxel, mdr1a/1b KO mice versus WT mice ([6]; 10 min): approximately 3.5 fold
Absorption Rate V of paclitaxel ([6]; 10 min, WT mice, no inhibitor): 15.7 nmol/min/kg
Cpv of paclitaxel ([6]; 10 min, WT mice, no inhibitor): 439 ± 98 nM
Cpv − Csys of paclitaxel ([6]; 10 min, WT mice, no inhibitor): 216 ± 80 nM
Absorption Rate V of paclitaxel ([6]; 10 min, mdr1a/1b KO mice): 54.3 nmol/min/kg
Cpv of paclitaxel ([6]; 10 min, mdr1a/1b KO mice): 967 ± 191 nM
Cpv − Csys of paclitaxel ([6]; 10 min, mdr1a/1b KO mice): 749 ± 165 nM
V of paclitaxel, mdr1a/1b KO mice versus WT mice ([6]; 30 min): approximately 5.1 fold
Absorption Rate V of paclitaxel ([6]; 30 min, WT mice, no inhibitor): 12.4 nmol/min/kg
Cpv − Csys of paclitaxel ([6]; 30 min, WT mice, no inhibitor): 165 ± 61 nM
Absorption Rate V of paclitaxel ([6]; 30 min, mdr1a/1b KO mice): 63.7 nmol/min/kg
Cpv − Csys of paclitaxel ([6]; 30 min, mdr1a/1b KO mice): 847 ± 144 nM

CC[C@@]1(O)C(=O)OCc2c1cc1n(c2=O)Cc2cc3c(CN(C)C)c(O)ccc3nc2-1 [topotecan]
concentration at 30 min ([7]; plasma (portal vein), Cpv of topotecan, mdr1a/1b KO mice): 236 ± 30 nM
concentration at 30 min ([7]; plasma (systemic circulation, abdominal vein), Csys of topotecan, bcrp KO mice): 398 ± 88 nM
concentration at 30 min ([7]; plasma (systemic circulation, abdominal vein), Csys of topotecan, mdr1a/1b KO mice): 207 ± 28 nM
concentration at 30 min ([7]; portal vein plasma, Cpv of topotecan, bcrp KO mice): 469 nM
concentration at 30 min ([7]; male, plasma (systemic circulation, abdominal vein), Csys of topotecan, WT mice, no inhibitor): 179 ± 25 nM
concentration at 30 min ([7]; male, portal vein plasma, Cpv of topotecan, WT mice, no inhibitor): 196 ± 29 nM
V of topotecan, bcrp KO mice versus WT mice ([7]; 30 min): approximately 4.1 fold
V of topotecan, bcrp KO mice versus mdr1a/1b KO mice ([7]; 30 min): ~2.4 fold
Absorption Rate V of topotecan ([7]; 30 min, WT mice, no inhibitor): 1.29 nmol/min/kg
Cpv − Csys of topotecan ([7]; 30 min, WT mice, no inhibitor): 17.1 ± 5.7 nM
Absorption Rate V of topotecan ([7]; 30 min, bcrp KO mice): 5.30 nmol/min/kg
Cpv of topotecan ([7]; 30 min, bcrp KO mice): 469 ± 64 nM
Cpv − Csys of topotecan ([7]; 30 min, bcrp KO mice): 70.5 ± 20 nM
Absorption Rate V of topotecan ([7]; 30 min, mdr1a/1b KO mice): 2.17 nmol/min/kg
Cpv − Csys of topotecan ([7]; 30 min, mdr1a/1b KO mice): 28.9 ± 8.4 nM

lucifer yellow
Papp,AB (Caco-2 cell monolayers): 0.1 ×10⁻⁶ cm/s
